Here are results for 26 compounds from US12655130B2 (ASSEMBLY BIOSCIENCES, INC., priority 2020, dated 2026).

For this experiment, the system named is HBV viral load (viral production from HepAD38 cells). Description: Activity of test compounds on viral production from HepAD38 cells (viral load by qPCR of HBV core sequence). The conditions noted are these: Hepatitis B virus, HePAD38, 120 h, viral load lowering, 5 days, qPCR of supernatant, read-out: VL HepAD38 EC50 range. The class given is cell-based. Put shortly: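 EC50 and CC50 come from four-parameter logistic fits: HBV core DNA in supernatant by TaqMan qPCR against DNA standards, normalised to DMSO controls, and cell viability by CellTiter-Glo. Cells were plated at 50,000/well without tetracycline (2% FBS) and exposed to compounds (highest 10 μM) for 5 days, 37 °C.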
For orientation: In qPCR the cycle at which signal appears reflects the starting amount.

As for `Cn1cnc(C2CC3CC(O)(Cc4c(Br)cnn4C)CC3C2)c1C(=O)Nc1ccc(F)c(Cl)c1` (centres unmarked) [Example 123, 4-(5-((4-bromo-1-methyl-1H-pyrazol-5-yl)methyl)-5-hydroxyoctahydropentalen-2-yl)-N-(3-chloro-4-fluorophenyl)-1-methyl-1H-imidazole-5-carboxamide], the EC50 was < 10 nM.

Consider `CCn1cc(C2(O)CC3CC(c4ncn(C)c4C(=O)Nc4ccc(F)c(Cl)c4)CC3C2)c(C(F)(F)F)n1` (centres unmarked) [Example 151, N-(3-Chloro-4-fluorophenyl)-4-(5-(1-ethyl-3-(trifluoromethyl)-1H-pyrazol-4-yl)-5-hydroxyoctahydropentalen-2-yl)-1-methyl-1H-imidazole-5-carboxamide], for which the EC50 was < 10 nM.

On to `Cn1cc(C2(O)CC3CC(c4ncn(C)c4C(=O)Nc4ccc(F)c(Cl)c4)CC3C2)c(C(F)(F)F)n1` (single isomer, unassigned) [Example 114, N-(3-Chloro-4-fluorophenyl)-4-(5-hydroxy-5-(1-methyl-3-(trifluoromethyl)-1H-pyrazol-4-yl)octahydropentalen-2-yl)-1-methyl-1H-imidazole-5-carboxamide], for which the EC50 is < 10 nM.

For `Cn1cnc(C2CC3CC(CC(N)=O)CC3C2)c1C(=O)Nc1ccc(F)c(Cl)c1` (centres unmarked) [Example 17, 4-(5-(2-Amino-2-oxoethyl)octahydropentalen-2-yl)-N-(3-chloro-4-fluorophenyl)-1-methyl-1H-imidazole-5-carboxamide], the EC50 is < 10 nM.

On to `Cc1nc(C2CC3CC(O)(CS(C)(=O)=O)CC3C2)c(C(=O)Nc2ccc(F)c(Cl)c2)n1C` (centres unmarked) [Example 25, N-(3-Chloro-4-fluorophenyl)-4-(5-hydroxy-5-((methylsulfonyl)methyl)octahydropentalen-2-yl)-1,2-dimethyl-1H-imidazole-5-carboxamide], for which the EC50 was < 10 nM.

Turning to `CS(=O)(=O)CC1(O)CC2CC(c3nc4n(c3C(=O)Nc3ccc(F)c(Cl)c3)CCC4)CC2C1` (single isomer, unassigned) [Example 35, N-(3-Chloro-4-fluorophenyl)-2-(5-hydroxy-5-((methylsulfonyl)methyl)octahydropentalen-2-yl)-6,7-dihydro-5H-pyrrolo[1,2-a]imidazole-3-carboxamide], the EC50 is < 10 nM.

As to `CN(C)C1CC2CC(c3ncn(C)c3C(=O)Nc3ccc(F)c(Cl)c3)CC2C1` (centres unmarked) [Example 43, 5-[5-(Dimethylamino)-1,2,3,3a,4,5,6,6a-octahydropentalen-2-yl]-N-(3-chloro-4-fluorophenyl)-3-methyl-4-imidazolecarboxamide], the EC50 was 10 to 50 nM.

Regarding `CC(=O)c1nn(C)c(C2(O)CC3CC(c4ncn(C)c4C(=O)Nc4ccc(F)c(Cl)c4)CC3C2)c1F` (centres unmarked) [Example 65, 4-(5-(3-Acetyl-4-fluoro-1-methyl-1H-pyrazol-5-yl)-5-hydroxyoctahydropentalen-2-yl)-N-(3-chloro-4-fluorophenyl)-1-methyl-1H-imidazole-5-carboxamide], the EC50 is < 10 nM.

As for `Cn1cc(Br)c(C2(O)CC3CC(c4ncn(C)c4C(=O)Nc4ccc(F)c(Cl)c4)CC3C2)n1` (centres unmarked) [Example 117, 4-(5-(4-bromo-1-methyl-1H-pyrazol-3-yl)-5-hydroxyoctahydropentalen-2-yl)-N-(3-chloro-4-fluorophenyl)-1-methyl-1H-imidazole-5-carboxamide], the EC50 was < 10 nM.

For the compound `Cn1cnc(C2CC3CC(O)(Cn4ccc(C(C)(C)C)n4)CC3C2)c1C(=O)Nc1ccc(F)c(Cl)c1` (centres unmarked) [Example 97, 4-(5-((3-(tert-butyl)-1H-pyrazol-1-yl)methyl)-5-hydroxyoctahydropentalen-2-yl)-N-(3-chloro-4-fluorophenyl)-1-methyl-1H-imidazole-5-carboxamide], the EC50 was < 10 nM.

Take `Cn1cnc(C2CC3CC(O)(c4cc(C(C)(C)O)nn4C)CC3C2)c1C(=O)Nc1ccc(F)c(Cl)c1` (centres unmarked) [Example 59, N-(3-Chloro-4-fluorophenyl)-4-(5-hydroxy-5-(3-(2-hydroxypropan-2-yl)-1-methyl-1H-pyrazol-5-yl)octahydropentalen-2-yl)-1-methyl-1H-imidazole-5-carboxamide]: the EC50 was < 10 nM.

On to `Cn1cc(C2(O)CC3CC(c4ncn(C)c4C(=O)Nc4ccc(F)c(Cl)c4)CC3C2)c(C(O)CO)n1` (centres unmarked) [Example 190, N-(3-Chloro-4-fluorophenyl)-4-(5-(3-(1,2-dihydroxyethyl)-1-methyl-1H-pyrazol-4-yl)-5-hydroxyoctahydropentalen-2-yl)-1-methyl-1H-imidazole-5-carboxamide], for which the 50% effective concentration (EC50) is < 10 nM.

For `COc1cc(C2(O)CC3CC(c4ncn(C)c4C(=O)Nc4ccc(F)c(Cl)c4)CC3C2)n(C)n1` (centres unmarked) [Example 93, N-(3-chloro-4-fluorophenyl)-4-(5-hydroxy-5-(3-methoxy-1-methyl-1H-pyrazol-5-yl)octahydropentalen-2-yl)-1-methyl-1H-imidazole-5-carboxamide], the EC50 is < 10 nM.

As for `Cc1nc(C2CC3CC(O)(c4c(Cl)cnn4C)CC3C2)c(C(=O)Nc2ccc(F)c(Cl)c2)n1C` (centres unmarked) [Example 138, 4-(5-(4-Chloro-1-methyl-1H-pyrazol-5-yl)-5-hydroxyoctahydropentalen-2-yl)-N-(3-chloro-4-fluorophenyl)-1,2-dimethyl-1H-imidazole-5-carboxamide], the EC50 was < 10 nM.

In the case of `CC(C)n1nc(NCC(C)(C)O)c(F)c1C1(O)CC2CC(c3ncn(C)c3C(=O)Nc3ccc(F)c(Cl)c3)CC2C1` (centres unmarked) [Example 216, N-(3-Chloro-4-fluorophenyl)-4-(5-(4-fluoro-3-((2-hydroxy-2-methylpropyl)amino)-1-isopropyl-1H-pyrazol-5-yl)-5-hydroxyoctahydropentalen-2-yl)-1-methyl-1H-imidazole-5-carboxamide], the EC50 was < 10 nM.

Turning to `Cc1nn(C)c(C2(O)CC3CC(c4ncn(C)c4C(=O)Nc4ccc(F)c(Cl)c4)CC3C2)c1F` (centres unmarked) [Example 92, N-(3-chloro-4-fluorophenyl)-4-(5-(4-fluoro-1,3-dimethyl-1H-pyrazol-5-yl)-5-hydroxyoctahydropentalen-2-yl)-1-methyl-1H-imidazole-5-carboxamide], the EC50 is < 10 nM.

On to `Cn1c(Cl)nc(C2CC3CC(O)CC3C2)c1C(=O)Nc1ccc(F)c(Cl)c1` (centres unmarked) [Example 22, 2-Chloro-N-(3-chloro-4-fluorophenyl)-4-(5-hydroxyoctahydropentalen-2-yl)-1-methyl-1H-imidazole-5-carboxamide], for which the EC50 was < 10 nM.

For the compound `CCn1cc(C(F)(F)F)c(C2(O)CC3CC(c4ncn(C)c4C(=O)Nc4ccc(F)c(Cl)c4)CC3C2)n1` (centres unmarked) [Example 159, N-(3-Chloro-4-fluorophenyl)-4-(5-(1-ethyl-4-(trifluoromethyl)-1H-pyrazol-3-yl)-5-hydroxyoctahydropentalen-2-yl)-1-methyl-1H-imidazole-5-carboxamide], the EC50 was < 10 nM.

`CCn1nc(C(F)F)cc1C1(O)CC2CC(c3ncn(C)c3C(=O)Nc3ccc(F)c(F)c3)CC2C1` (centres unmarked) [Example 177, 4-(5-(3-(Difluoromethyl)-1-ethyl-1H-pyrazol-5-yl)-5-hydroxyoctahydropentalen-2-yl)-N-(3,4-difluorophenyl)-1-methyl-1H-imidazole-5-carboxamide]: the concentration for a half-maximal effect (EC50) is < 10 nM.

Turning to `CN1CCN(C2CC3CC(c4ncn(C)c4C(=O)Nc4ccc(F)c(Cl)c4)CC3C2)CC1` (centres unmarked) [Example 18, N-(3-Chloro-4-fluorophenyl)-1-methyl-4-(5-(4-methylpiperazin-1-yl)octahydropentalen-2-yl)-1H-imidazole-5-carboxamide], the EC50 lay in the range of 10 to 50 nM.

Take `Cn1cnc(C2CC3CC(O)(c4c(F)c(C#N)nn4C)CC3C2)c1C(=O)Nc1ccc(F)c(Cl)c1` (centres unmarked) [Example 64, N-(3-Chloro-4-fluorophenyl)-4-(5-(3-cyano-4-fluoro-1-methyl-1H-pyrazol-5-yl)-5-hydroxyoctahydropentalen-2-yl)-1-methyl-1H-Imidazole-5-carboxamide]: the EC50 is < 10 nM.

For the compound `CC(C)(C)OC(=O)N1CCn2c(nc(C3CC4CC(=O)CC4C3)c2C(=O)Nc2ccc(F)c(Cl)c2)C1` (centres unmarked) [Example 90, tert-butyl 3-((3-chloro-4-fluorophenyl)carbamoyl)-2-(5-oxooctahydro-pentalen-2-yl)-5,6-dihydroimidazo[1,2-a]pyrazine-7(8H)-carboxylate], the EC50 is 50 to 500 nM.

In the case of `Cn1cnc(C2CC3CC(O)(CS(C)(=O)=O)CC3C2)c1C(=O)Nc1ccc(F)c(Cl)c1` (single isomer, unassigned) [Example 3, N-(3-Chloro-4-fluorophenyl)-4-(5-hydroxy-5-((methylsulfonyl)methyl)octahydropentalen-2-yl)-1-methyl-1H-imidazole-5-carboxamide], the EC50 is < 10 nM.

For the compound `CCNc1cc(C2(O)CC3CC(c4ncn(C)c4C(=O)Nc4ccc(F)c(Cl)c4)CC3C2)n(C)n1` (centres unmarked) [Example 200, N-(3-Chloro-4-fluorophenyl)-4-(5-(3-(ethylamino)-1-methyl-1H-pyrazol-5-yl)-5-hydroxyoctahydropentalen-2-yl)-1-methyl-1H-imidazole-5-carboxamide], the EC50 is < 10 nM.

As to `Cn1cnc(C2CC3CC(O)(c4cnn(C)c4C(F)F)CC3C2)c1C(=O)Nc1ccc(F)c(Cl)c1` (centres unmarked) [Example 147, N-(3-Chloro-4-fluorophenyl)-4-(5-(5-(difluoromethyl)-1-methyl-1H-pyrazol-4-yl)-5-hydroxyoctahydropentalen-2-yl)-1-methyl-1H-imidazole-5-carboxamide], the EC50 was < 10 nM.

For `Cn1cc(C(F)(F)F)c(C2(O)CC3CC(c4ncn(C)c4C(=O)Nc4ccc(F)c(Cl)c4)CC3C2)n1` (centres unmarked) [Example 156, N-(3-Chloro-4-fluorophenyl)-4-(5-hydroxy-5-(1-methyl-4-(trifluoromethyl)-1H-pyrazol-3-yl)octahydropentalen-2-yl)-1-methyl-1H-imidazole-5-carboxamide], the EC50 is < 10 nM.

As usually defined, the EC50 is the concentration at which the effect is half-maximal.
